Measurements published in ChEMBL document CHEMBL4321821, “Opioids as Substrates and Inhibitors of the Genetically Highly Variable Organic Cation Transporter OCT1” (J Med Chem, 2019).

Columns and labels:
OCT1 (SLC22A1) [1] = target: T1, OCT1 (SLC22A1) (Homo sapiens, UniProt O15245); assay: Substrate activity at human OCT1 expressed in HEK293 cells assessed as increase in compound uptake at 0.05 uM incubated for 2 mins by LC-MS/MS analysis relative to control empty vector transfected cells; format: cell-based; details: HEK293 cells that express human OCT1, read-out: FC
T1 sequence (O15245 whole entry): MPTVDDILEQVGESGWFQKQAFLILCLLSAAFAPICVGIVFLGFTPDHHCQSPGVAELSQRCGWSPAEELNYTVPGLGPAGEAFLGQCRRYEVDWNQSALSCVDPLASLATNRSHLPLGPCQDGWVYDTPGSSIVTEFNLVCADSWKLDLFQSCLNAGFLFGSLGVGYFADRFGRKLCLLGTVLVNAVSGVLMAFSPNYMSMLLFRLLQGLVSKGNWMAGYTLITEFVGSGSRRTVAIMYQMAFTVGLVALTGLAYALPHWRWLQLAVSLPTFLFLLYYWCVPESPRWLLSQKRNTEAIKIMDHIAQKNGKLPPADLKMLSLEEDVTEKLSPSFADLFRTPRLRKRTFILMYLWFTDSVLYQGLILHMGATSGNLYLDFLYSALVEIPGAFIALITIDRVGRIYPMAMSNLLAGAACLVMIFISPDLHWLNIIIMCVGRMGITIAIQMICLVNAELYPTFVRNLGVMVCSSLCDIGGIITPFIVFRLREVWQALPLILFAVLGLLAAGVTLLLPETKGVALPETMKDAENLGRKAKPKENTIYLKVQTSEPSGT

OCT1 (SLC22A1) [2] = target: T1, OCT1 (SLC22A1); assay: Substrate activity at human OCT1 expressed in HEK293 cells assessed as increase in compound uptake at 0.1 uM incubated for 2 mins by LC-MS/MS analysis relative to control empty vector transfected cells; format: cell-based; details: HEK293 cells that express human OCT1, read-out: FC
OCT1 (SLC22A1) [3] = target: T1, OCT1 (SLC22A1); assay: Substrate activity at human OCT1 expressed in HEK293 cells assessed as increase in compound uptake at 0.5 uM incubated for 2 mins by LC-MS/MS analysis relative to control empty vector transfected cells; format: cell-based; details: HEK293 cells that express human OCT1, read-out: FC
[4] = target: T2, Solute carrier family 22 member 1 (Homo sapiens, UniProt O15245); assay: Inhibition of human OCT1 expressed in HEK293 cells assessed as reduction in ASP+ substrate uptake by microplate reader based analysis; format: cell-based
T2 sequence (O15245 whole entry): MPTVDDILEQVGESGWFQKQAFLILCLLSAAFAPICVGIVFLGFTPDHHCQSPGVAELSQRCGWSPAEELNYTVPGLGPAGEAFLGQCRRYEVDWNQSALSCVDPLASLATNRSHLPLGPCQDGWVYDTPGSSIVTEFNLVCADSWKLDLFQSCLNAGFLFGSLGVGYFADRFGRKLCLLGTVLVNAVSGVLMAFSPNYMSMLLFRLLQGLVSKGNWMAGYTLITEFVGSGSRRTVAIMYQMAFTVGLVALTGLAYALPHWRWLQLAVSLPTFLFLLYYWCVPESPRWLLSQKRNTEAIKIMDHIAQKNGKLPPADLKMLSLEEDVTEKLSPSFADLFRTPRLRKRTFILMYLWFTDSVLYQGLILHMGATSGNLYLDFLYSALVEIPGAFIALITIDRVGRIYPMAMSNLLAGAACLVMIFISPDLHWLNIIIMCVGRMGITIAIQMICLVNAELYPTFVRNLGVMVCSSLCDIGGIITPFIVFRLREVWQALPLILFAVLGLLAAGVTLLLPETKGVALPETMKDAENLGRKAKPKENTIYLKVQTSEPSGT

in vitro = details: PAMPA
Description: Passive membrane permeability by LC-MS/MS analysis based PAMPA

[5] = Cmax in human at 60 mg, po; format: ADME; parameters: dose 60 mg, route oral; details: in vivo
[6] = Unbound Cmax in human at 60 mg, po; format: ADME; details: in vivo
[7] = Unbound maximal portal vein concentration of in human at 60 mg, po; format: ADME, tissue-based; details: in vivo
[8] = Ratio of unbound Cmax in human at 60 mg, po to inhibition of human OCT1 expressed in HEK293 cells assessed as reduction in ASP+ substrate uptake by microplate reader based analysis; format: ADME, organism-based; details: in vivo
[9] = Ratio of unbound maximal portal vein concentration in human at 60 mg, po to inhibition of human OCT1 expressed in HEK293 cells assessed as reduction in ASP+ substrate uptake by microplate reader based analysis; format: ADME, organism-based; details: in vivo

SMILES | uptake ratio at 2 min, 0.05 µM (OCT1 (SLC22A1) [1]) | uptake ratio at 2 min, 0.1 µM (OCT1 (SLC22A1) [2]) | uptake ratio at 2 min, 0.5 µM (OCT1 (SLC22A1) [3]) | IC50 [4] [µM] | Papp (in vitro) [×10⁻⁶ cm/s] | Cmax [5] [nM] | fCmax [6] [µM] | fCmax [7] [µM] | Ratio [8] | Ratio [9]
CN1CC[C@@]23CCCC[C@@H]2[C@@H]1Cc1ccc(O)cc13 [DEXTRORPHAN] | 2.1 | 1.9 | 1.5 | 6 to 6.4 | 5.4 |  |  |  |  | 
CCOC(=O)C1(c2ccccc2)CCN(C)CC1 [MEPERIDINE] | 1.1 | 1.2 | 1.2 | 22.3 | 40.2 |  |  |  |  | 
COc1ccc2c(c1)[C@@]13CCCC[C@H]1[C@@H](C2)NCC3 | 2.5 | 2.2 | 2 | 10 to 10.3 | 17.2 |  |  |  |  | 
CN1CC[C@]23c4c5ccc(O)c4O[C@H]2C(=O)CC[C@@]3(O)[C@H]1C5 [OXYMORPHONE] | 2.4 | 1.3 | 0.9 | 250 | 3.2 |  |  |  |  | 
Oc1ccc2c(c1)[C@@]13CCCC[C@H]1[C@@H](C2)NCC3 [NORLEVORPHANOL] | 14 | 14.9 | 17.4 | 24.9 to 25 | 0.7 |  |  |  |  | 
COc1ccc2c(c1)[C@]13CCCC[C@@H]1[C@H](C2)N(C)CC3 [DEXTROMETHORPHAN] | 1.1 | 1.3 | 0.8 | 15 to 15.1 | 63.7 | 20 | 0.007 | 4.57 | 0.0004 | 0.302
COc1ccc2c3c1O[C@H]1[C@@H](O)C=C[C@H]4[C@@H](C2)N(C)CC[C@@]341 [CODEINE] | 0.7 | 1 | 0.8 | 236 | 8 |  |  |  |  | 
CNC[C@H]1CCCC[C@]1(O)c1cccc(OC)c1 |  |  |  | 55.7 | 13.4 |  |  |  |  | 
